Assay results published in patent US11040052B2, “Methods and pharmaceutical compositions for modulating autophagy in a subject in need thereof” (INSERM (INSTITUT NATIONAL DE LA SANTE ET DE LA RECHERCHE …, priority 2013, dated 2021).
Entries after “also recorded” stand apart in the source; their conditions may differ.

Tests used:
AcCoA levels = experiment: Targeted analysis of AcCoA levels in cultured cells (HPLC-MS); assay type: cell-based, human; settings: for cytosolic AcCoA levels: cytosolic fraction; for AcCoA levels in starved cells: nutrient-depleted (starved) cells in vitro; for AcCoA levels: cells kept in rich medium
Experimental: Cells were trypsinized, pelleted at 1000 rpm for 4 min, washed with PBS and pelleted again at 1000 rpm for 4 min. Cells were then resuspended in 5 ml of ice-cold hyposmotic buffer and keep on ice for 5 min. Cells were broken to release nuclei using a pre-chilled Dounce homogenizer (20 strokes with a tight pestle) and then were then centrifuged at 228 g.
For in vitro experiments, cell pellets were resuspended in 300 μL of water with HEPES and EDTA (pH 7.4) at 1 mM containing internal standard acetylcoenzyme A (2-C13) at 1 mg/L, vortexed and heated at 100° C. for 1 min. Samples were incubated in liquid nitrogen for 1 min and thawed at room temperature two times. They were let for 1 h at −20° C. and centrifuged at 4° C. during 15 min at 13,000 g. Supernatants were transferred in HPLC vials and injected in HPLC/MS or kept at −80° C. until injection. For in vivo experiments, frozen tissues were placed in ice-cold homogenization tubes containing ceramic beads. Five μL of ice-cold methanol/water (80/20; v/v) were added for 1 mg of tissue. Tissues were homogenized two times for 20 s at 5,500 rpm using Precellys 24 tissue homogenator (Bertin Technologies, Montigny-le-Bretonneux, France). Samples were placed 10 min on ice. Next they were centrifuged at 4° C. during 15 min at 13,000 g. Supernatants were transferred in HPLC vials and injected in HPLC-MS system or kept at −80° C. until injection.
Targeted analyses were performed on Rapid Resolution Liquid Chromatography (RRLC) 1200SL system (Agilent Technologies, Waldbronn, Germany) coupled to a Triple Quadruple QQQ 6410 mass spectrometer (Agilent Technologies). RRLC analysis was done on 150×2.1 mm, 3.5 μm Eclipse Plus SB-Aq column with a pre-column 30 mm×2.1 mm 3.5 μm Eclipse plus (Agilent Technologies) with water containing 10 mmol/L of ammonium acetate and 0.01% of acetic acid in channel A and acetonitrile in channel B in gradient mode at a flow rate of 0.3 mL·min^−1: t=0 min 2% B; t=9 min 95% B; t=11 min 95% B; re-equilibration time of 3 min. Mass spectrometer analysis was done in positive electrospray ionization mode at +4 kV on the QQQ system operating in MRM mode. MRM transitions were optimized with standard of AcCoA and AcCoA A 2-C^13 with direct infusion. Two transitions were recorded for each compound; • AcCoA 810>303 CE (collision energy) 28V; fragmentor 180V • 810>428 CE 20V • AcCoA 2-C13 812>305 CE 28V; fragmentor 180V • 812>428 CE 24V […]

[1] = test system: U2OS cells stably expressing GFP-LC3; experiment: Autophagy in cultured cells: GFP-LC3 puncta formation and LC3 lipidation with or without bafilomycin A1; assay type: cell-based, human; settings: for starvation-induced autophagy (GFP-LC3 puncta, LC3 lipidation, autophagic flux): nutrient-depleted (starved) cells in vitro; for autophagic flux (GFP-LC3 puncta formation, LC3 lipidation): cells kept in rich medium, presence and absence of BafA1; for abolition of the effects of AcCoA-replenishing agents on starvation-induced protein deacetylation and autophagy: starved cells plus DCA, DMKG or KIC
Experimental: U2OS, HeLa or H4 cells stably expressing GFP-LC3 were seeded in 96-well imaging plates (BD Falcon, Sparks, USA) 24 h before stimulation. Cells were treated with the indicated agents for 4 h. […] Images were analyzed for the presence of GFP-LC3 puncta in the cytoplasm by means of the BD Attovision software (BD Imaging Systems). Cell surfaces were segmented and divided into cytoplasmic and nuclear regions according to manufacturer standard proceedings. RB 2×2 and Marr-Hildreth algorithms were used to recognize cytoplasmic GFP-LC3 positive dots. Statistical analyses were implemented on the R software (http://www.r-project.org/). For quantitative analyses of protein acetylation, cell surfaces were segmented into cytoplasm and nuclei regions, and staining intensity of each individual cell was measured for statistical analysis.
Membranes were then sliced in different parts according to the molecular weight of the protein of interest to allow simultaneous detection of different antigens within the same experiment. Unspecific binding sites were saturated by incubating membranes for 1 h in 0.05% Tween 20 (v:v in TBS) supplemented with 5% non-fat powdered milk (w:v in TBS), followed by the overnight incubation with primary antibodies specific for acetylated-lysine, LC3, phospho-AMPK (Thr172), AMPK, phospho-ribosomal protein S6 kinase (Thr421/Ser424), ribosomal protein S6 kinase, or STQM/p62 (Santa Cruz Biotechnology). Development was performed with appropriate horseradish peroxidase (HRP)-labeled secondary antibodies (Southern Biotech, Birmingham, USA) plus the SuperSignal West Pico chemoluminescent substrate (Thermo Scientific-Pierce). An anti-glyceraldehyde-3-phosphate dehydrogenase antibody (Chemicon International, Temecula, USA) was used to control equal loading of lanes.
For immunoblotting, protein extracts obtained by cellular lysis via RIPA buffer were run on 4-12% Bis-Tris acrylamide (Invitrogen) and electrotransferred to […] PVDF membranes (Biorad, USA). Unspecific binding sites were saturated by incubating membranes for 1 h in 0.05% Tween 20 (v:v in TBS) supplemented with 5% non-fat powdered milk (w:v in TBS), followed by an overnight incubation with primary antibodies specific for, LC3, phospho-AMPK (Thr172), AMPK, phosphor-ACC (Ser79), ACC, phospho-ribosomal protein S6 kinase (Thr421/Ser424), ribosomal protein S6 kinase, or SQSTM/p62 (Abnova). Membranes were opportunely cut in order to allow simultaneous detection of different molecular weight proteins. Development was performed with horseradish peroxidase (HRP)-labeled secondary antibodies (Southern Biotech, Birmingham, USA) plus the SuperSignal West Pico chemo luminescent substrate (Thermo Scientific-Pierce). An anti-glyceraldehyde-3-phosphate dehydrogenase antibody (Abcam) and anti-Actin antibody (Abcam) were used to ensure equal loading of lanes. Quantification was performed by densitometry by means of Image J software.
U2OS and H4 cells stably expressing GFP-LC3 were seeded in 96-well or 384-well imaging plates (BD Falcon, Sparks, USA). 24 h before stimulation, ells were treated with the indicated agents for 6 hours in absence of lysososomal ATPase inhibitors and for 3 hours in presence of Bafilomycin A1. […] Images were analyzed for the detection of GFP-LC3 puncta in the cytoplasm by means of the BD Attovision software (BD Imaging Systems. Cellular regions of interest, cytoplasm and nucleus, were defined and segmented according to standard proceedings. RB 2×2 and Marr-Hildreth algorithms were employed to allow the detection of GFP LC3 puncta. Statistical analyses were conducted using the R and Prism softwares (http://www.r-project.org/). For quantitative analyses of protein acetylation, cell surfaces were segmented intocytoplasmic and nucleic regions, and staining intensity of each individual cell was measured for statistical analysis.

Compound | cytosolic AcCoA levels (AcCoA levels) | AcCoA levels in starved cells (AcCoA levels) | starvation-induced autophagy (GFP-LC3 puncta, LC3 lipidation, autophagic flux) [1] | AcCoA levels (AcCoA levels) | autophagic flux (GFP-LC3 puncta formation, LC3 lipidation) [1] | abolition of the effects of AcCoA-replenishing agents on starvation-induced protein deacetylation and autophagy [1]
O=C(O)CCCCC1CCSS1 (stereo not drawn) [LA, lipoic acid] | also raised the cytosolic concentration of AcCoA | increased both cellular AcCoA levels; also recorded: maintain high AcCoA | abolished starvation-induced autophagy; also recorded: blunted starvation-induced mTORC1 inhibition, AMPK activation and autophagy flux | – | – | –
N#CC(=Cc1cn(-c2ccccc2)c2ccccc12)C(=O)O [UK5099, 2-Cyano-3-(1-phenyl-1H-indol-3-yl)-2-propenoic acid] | also raised the cytosolic concentration of AcCoA | – | – | reduced both AcCoA levels; also recorded: depletion of intracellular AcCoA | increased autophagic flux; also recorded: induction of GFP-LC3 puncta and lipidation of endogenous LC3-I to LC3-II; also recorded: induction of GFP-LC3 puncta, and lipidation of endogenous LC3-I to LC3-II | –
COC(=O)CCC(=O)C(=O)OC [DMKG, dimethyl-α-ketoglutarate] | also raised the cytosolic concentration of AcCoA | increased cellular AcCoA levels; also recorded: maintained high AcCoA | abolished starvation-induced autophagy; also recorded: low autophagy | – | – | –
O=C(O)c1cccc(C(=O)O)c1C(=O)O [BTC, 1,2,3-benzenetricarboxylate] | induced the triad of AcCoA depletion | – | – | reduced both AcCoA levels | increased autophagic flux; also recorded: induced the triad | cancelled the inhibitory effects; also recorded: abolished both the protein hyperacetylation and autophagy suppression
CC(C)CC(=O)C(=O)O [KIC, ketoisocaproic acid] | also raised the cytosolic concentration of AcCoA | increase in AcCoA levels; also recorded: sufficient to avoid AcCoA depletion | inhibition of starvation induced autophagy; also recorded: inhibited the starvation-induced increase in autophagic flux; also recorded: more efficient than leucine in suppressing autophagy | – | – | –
CC(C)C[C@H](N)C(=O)O [leucine] | – | sufficient to maintain high AcCoA levels | suppression of autophagy | – | – | –
CC1=NN(c2ccc(C(=O)O)cc2)C(=O)/C1=C\c1ccc(-c2cc(C)c(C)cc2[N+](=O)[O-])o1 [c646] | – | – | – | – | induced autophagy both in vitro, in cultured cells, and in vivo, in mice | precluded the inhibitory effect of AcCoA-replenishing agents on starvation-induced autophagy
O=C(O)CC(O)(C(=O)O)C(O)C(=O)O (stereo not drawn) [HC, hydroxycitrate] | reduced cytoplasmic AcCoA levels | – | – | reduced both AcCoA levels | increased autophagic flux; also recorded: induce autophagic flux; also recorded: strongly stimulated autophagy both in vitro and in vivo; also recorded: stimulated autophagic flux in cultured cancer cells | cancelled the inhibitory effects; also recorded: abolished both the protein hyperacetylation and autophagy suppression
